Data published in PubChem BioAssay AID1919009 (Molecular Pharmacology Branch, DTP, NCI, 2023).
pIC50: −log10 of the molar value.

Test system: K24384-001-R-PDC complex spheroid growth
Test: Anticancer human tumor K24384-001-R-PDC patient-derived pancreatic adenocarcinoma cell line growth inhibition [AhR]
Details: for pIC50: curve of first compound; for viability, T/C: stronger effect = lower value
Description: Multicellular complex tumor spheroid response to aryl hydrocarbon receptor antagonists in combination with a variety of drugs and investigational agents in selected tumor cell lines
The current study was undertaken to assess response to aryl hydrocarbon receptor antagonists in combination with standard-of-care drugs and investigational agents in solid tumor complex spheroid models. Complex spheroids include a stromal component modeled by human endothelial cells (HUVEC) and fibroblasts modeled by human mesenchymal stem cells (MSCs). The concentration ranges selected for each drug and investigational agent were based upon clinically achievable concentrations if the clinical Cmax of the agent was known.
Compounds. The drugs and investigational agents: BAY 2416964 (NSC825713), GNF351 (NSC835774), CH-223191 (NSC835775), CPI-455 (NSC825282), aza-TdCyd (NSC777586), decitabine (NSC127716), belinostat (NSC758774), entinostat (NSC756642), pevonedistat (NSC761192), tazemetostat (NSC777109), talazoparib (NSC765396), olaparib (NSC753686), selinexor (NSC780203), nedisertib (M3814, NSC802822), bortezomib (NSC756655), venetoclax (NSC766270), doxorubicin (NSC123127), elimusertib (BAY189344, NSC800525), ceralasertib (AZD6738, NSC777638), TAK-243 (NSC785004), alisertib (NSC759677), etoposide (NSC141540), topotecan (NSC609699), eribulin (NSC707389), gemcitabine (NSC613327), carboplatin (NSC241240), cisplatin (NSC119875), and SN-38 (NSC673596) were obtained from the National Cancer Institute (NCI) Developmental Therapeutics Program Chemical Repository (32). The FDA-approved anticancer drug set is available from the Developmental Therapeutics Program at https://dtp.cancer.gov/organization/dscb/obtaining/available plates.htm. […] The stock solutions were prepared in dimethyl sulfoxide (DMSO, Sigma-Aldrich, St. Louis, MO, cat. D2650), except for the platinum compounds which were prepared in saline (Quality Biological, Gaithersburg, MD, cat. 114-055-101), at 800-fold the tested concentration and stored at -70 degrees C prior to their use. All drugs and investigational agents were tested over a range starting from a high concentration at or near the clinical Cmax and decreasing in half-log increments. If the clinical Cmax for an agent had not been determined, the highest concentration tested was 10 microM (Table 1).
Cell Culture. All cells were maintained in an incubator at 37 degrees C and 5% CO2 with 95% humidity. The PDC lines were cultured according to standard operating procedures established by the NCI PDMR (https://pdmr.cancer.gov). Briefly, all PDCs were thawed and cultured in Matrigel-coated flasks prepared with a working solution of 1X Ham's F-12 nutrient mix, without supplementation (Invitrogen, Waltham, MA, cat. 11765054), 100 U/mL penicillin-streptomycin (Invitrogen, cat. 15140122), and 2.5% Matrigel (Corning Inc., Corning, NY, cat. 354248) for the first three passages. All PDCs were cultured in complete DMEM/F-12 media containing advanced DMEM/F-12 (Invitrogen, cat. 12634028), 4.9% defined fetal bovine serum, heat inactivated (HyClone Laboratories Inc., Logan, UT, cat. SH30070.03HI), 389 ng/mL hydrocortisone (Sigma-Aldrich, cat. H4001), 9.7 ng/mL human EGF recombinant protein (Invitrogen, cat. PHG0313), 23.4 microg/mL adenine (Sigma-Aldrich, cat. A2786), 97.3 U/mL penicillin-streptomycin (Invitrogen, cat. 15140122), 1.9 mM L-glutamine (Invitrogen, cat. 25030081), and 9.7 microM Y-27632 dihydrochloride (Tocris Bioscience, Bristol, United Kingdom, cat. 1254). The PDCs were cultured in complete DMEM/F12 media without 10 microM Y-27632 dihydrochloride for at least two passages prior to the screen. The established cell lines NCI-H1341 and […] were cultured in DMEM/F-12, HEPES (Invitrogen, cat. 11330032), 5% defined fetal bovine serum (HyClone Laboratories Inc., cat. SH30070.03), ITS premix universal culture supplement [insulin (5 microg/mL), transferrin (5 microg/mL), and selenious acid (5 ng/mL)] […]

[1] = second compound 0.1 µM, first compound 0.0316 µM
[2] = second compound 0.1 µM, first compound 0.1 µM
[3] = second compound 0.1 µM, first compound 0.316 µM
[4] = second compound 0.1 µM, first compound 1 µM
[5] = second compound 0.1 µM, first compound 3.16 µM
[6] = second compound 0.1 µM, first compound 10 µM
[7] = second compound 0.316 µM, first compound 0.0316 µM
[8] = second compound 0.316 µM, first compound 0.1 µM
[9] = second compound 0.316 µM, first compound 0.316 µM
[10] = second compound 0.316 µM, first compound 1 µM
[11] = second compound 0.316 µM, first compound 3.16 µM
[12] = second compound 0.316 µM, first compound 10 µM
[13] = second compound 1 µM, first compound 0.0316 µM
[14] = second compound 1 µM, first compound 0.1 µM
[15] = second compound 1 µM, first compound 0.316 µM
[16] = second compound 1 µM, first compound 1 µM
[17] = second compound 1 µM, first compound 3.16 µM
[18] = second compound 1 µM, first compound 10 µM
[19] = second compound 3.16 µM, first compound 0.0316 µM
[20] = second compound 3.16 µM, first compound 0.1 µM
[21] = second compound 3.16 µM, first compound 0.316 µM
[22] = second compound 3.16 µM, first compound 1 µM
[23] = second compound 3.16 µM, first compound 3.16 µM
[24] = second compound 3.16 µM, first compound 10 µM
[25] = second compound 10 µM, first compound 0.0316 µM
[26] = second compound 10 µM, first compound 0.1 µM
[27] = second compound 10 µM, first compound 0.316 µM
[28] = second compound 10 µM, first compound 1 µM
[29] = second compound 10 µM, first compound 3.16 µM
[30] = second compound 10 µM, first compound 10 µM
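For viability, T/C in this document: percent of DMSO vehicle-treated spheroid viability set as 100%.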

Compound	pIC50 (second compound 0.1 µM)	pIC50 (second compound 0.316 µM)	pIC50 (second compound 1 µM)	pIC50 (second compound 3.16 µM)	pIC50 (second compound 10 µM)	viability, T/C [1]	viability, T/C [2]	viability, T/C [3]	viability, T/C [4]	viability, T/C [5]	viability, T/C [6]	viability, T/C [7]	viability, T/C [8]	viability, T/C [9]	viability, T/C [13]	viability, T/C [14]	viability, T/C [19]	viability, T/C [20]	viability, T/C [25]	viability, T/C [26]	further results
CC1(C)CCC(CN2CCN(c3ccc(C(=O)NS(=O)(=O)c4ccc(NCC5CCOCC5)c([N+](=O)[O-])c4)c(Oc4cnc5[nH]ccc5c4)c3)CC2)=C(c2ccc(Cl)cc2)C1 + CC(CO)NC(=O)c1cc(-c2ccc(Cl)cc2)nn(-c2cnn(C)c2)c1=O	< 5.00	< 5.00	< 5.00	5.05	< 5.00	91.4%	115%	94.4%	88.3%	87.9%	50.5%	117%	124%	123%	123%	139%	97.3%	112%	101%	114%	viability, T/C [10]: 101%; viability, T/C [11]: 106%; viability, T/C [12]: 49.9%; viability, T/C [15]: 123%; viability, T/C [16]: 115%; viability, T/C [17]: 110%; viability, T/C [18]: 51.7%; viability, T/C [21]: 122%; viability, T/C [22]: 110%; viability, T/C [23]: 77.9%; viability, T/C [24]: 47.2%; viability, T/C [27]: 113%; viability, T/C [28]: 110%; viability, T/C [29]: 90.2%; viability, T/C [30]: 53%
COc1cc(Nc2ncc3c(n2)-c2ccc(Cl)cc2C(c2c(F)cccc2OC)=NC3)ccc1C(=O)O + CC(CO)NC(=O)c1cc(-c2ccc(Cl)cc2)nn(-c2cnn(C)c2)c1=O	5.70	5.11	< 5.00	< 5.00	< 5.00	87.6%	80.7%	84%	57.6%	44.5%	45.5%	81%	79.9%	76.4%	92.3%	77.7%	90.6%	73.4%	94%	77.1%	viability, T/C [10]: 57.5%; viability, T/C [11]: 48.4%; viability, T/C [12]: 51.6%; viability, T/C [15]: 79.4%; viability, T/C [16]: 60.5%; viability, T/C [17]: 49.5%; viability, T/C [18]: 55%; viability, T/C [21]: 72.5%; viability, T/C [22]: 54%; viability, T/C [23]: 62.3%; viability, T/C [24]: 58.6%; viability, T/C [27]: 80.7%; viability, T/C [28]: 69.7%; viability, T/C [29]: 64%; viability, T/C [30]: 65.8%
Cn1ncnc1C1c2n[nH]c(=O)c3cc(F)cc(c23)NC1c1ccc(F)cc1 (stereo not given) + CC(CO)NC(=O)c1cc(-c2ccc(Cl)cc2)nn(-c2cnn(C)c2)c1=O	< 7.00	< 7.00	< 7.00	< 7.00	< 7.00	82%	69.5%					74.7%	74.8%		76.6%	72.4%	61.8%	62.8%	63.3%	54.1%	viability, T/C (second compound 0.1 µM, first compound 0.000316 µM): 101%; viability, T/C (second compound 0.1 µM, first compound 0.001 µM): 99.9%; viability, T/C (second compound 0.1 µM, first compound 0.00316 µM): 94%; viability, T/C (second compound 0.1 µM, first compound 0.01 µM): 79.8%; viability, T/C (second compound 0.316 µM, first compound 0.000316 µM): 105%; viability, T/C (second compound 0.316 µM, first compound 0.001 µM): 108%; viability, T/C (second compound 0.316 µM, first compound 0.00316 µM): 90.4%; viability, T/C (second compound 0.316 µM, first compound 0.01 µM): 80.8%; viability, T/C (second compound 1 µM, first compound 0.000316 µM): 95%; viability, T/C (second compound 1 µM, first compound 0.001 µM): 105%; viability, T/C (second compound 1 µM, first compound 0.00316 µM): 90.3%; viability, T/C (second compound 1 µM, first compound 0.01 µM): 65.8%; viability, T/C (second compound 3.16 µM, first compound 0.000316 µM): 78.7%; viability, T/C (second compound 3.16 µM, first compound 0.001 µM): 74.4%; viability, T/C (second compound 3.16 µM, first compound 0.00316 µM): 81.2%; viability, T/C (second compound 3.16 µM, first compound 0.01 µM): 69.9%; viability, T/C (second compound 10 µM, first compound 0.000316 µM): 66.3%; viability, T/C (second compound 10 µM, first compound 0.001 µM): 67.8%; viability, T/C (second compound 10 µM, first compound 0.00316 µM): 67.8%; viability, T/C (second compound 10 µM, first compound 0.01 µM): 66.1%
NS(=O)(=O)OCC1CC(n2ccc3c(NC4CCc5ccccc54)ncnc32)CC1O (stereo not given) + CC(CO)NC(=O)c1cc(-c2ccc(Cl)cc2)nn(-c2cnn(C)c2)c1=O	6.01	6.09	6.07	6.33	6.19	114%	123%	116%	49%	28.7%	25.3%	132%	147%	89.4%	152%	162%	125%	128%	87.1%	79.8%	viability, T/C [10]: 45.6%; viability, T/C [11]: 26.6%; viability, T/C [12]: 22.1%; viability, T/C [15]: 72%; viability, T/C [16]: 38.2%; viability, T/C [17]: 32.9%; viability, T/C [18]: 22.5%; viability, T/C [21]: 60.6%; viability, T/C [22]: 38.8%; viability, T/C [23]: 28.6%; viability, T/C [24]: 23.1%; viability, T/C [27]: 59.1%; viability, T/C [28]: 44.7%; viability, T/C [29]: 29.6%; viability, T/C [30]: 24.6%
